According to patent US20080233251A1, “Method and Apparatus for Sterilizing Containers” (priority 2005, published 2008):
Where “and” joins values, the source holds several entries; their conditions need not be identical. Equal values may be shown once. Read-outs that look alike come from different tables or passages of the source.

Experiments:
Type in all cases: cell-based
[1] = system: B. subtilis var. globigii (ATCC 9372); settings: surviving count per replicate strip (replicates 1-5), 50° C., inoculum 10^6
Description: (§1) The following examples illustrate the efficacy of the method of the present invention. The experiments were designed to identify the conditions optimal for polymer sterilization and also explore the boundary areas to determine the conditions limiting the efficacy of the treatment. Each polymer strip was inoculated by drop spotting approximately 100 micro-liters and coating the surface by swabbing the surface of the polyethylene strip. The culture was allowed to dry before sterilization. Each strip of polyethylene was treated by vigorously agitating the strip in the appropriate treatment solutions. Each treated polymer strip was then treated with catalase to inactivate residual peroxide, swabbed and plated using TGE incubated at 35° C. for two days.
In Table One, a NaOH control, an inoculated untreated control, and two methods of the present invention were measured and the results set forth in Table 1. Five replicate polymer strips were used for each of the two methods of the present invention. A log measurement value is provided below each of the non-log values. The first method uses hydrogen peroxide first and then an alkaline solution of sodium hydroxide. The second method uses an alkaline solution of sodium hydroxide first and then hydrogen peroxide. The sterilization was conducted at 50° C.

[2] = system: B. subtilis var. globigii (ATCC 9372); settings: for bactericidal effect (in words): text on Table Two; for Average: average of the logCFU/Swab replicates; for logCFU/Swab: log of surviving count per replicate (1-5); for logCFU/Swab / CFU/Swab: unagitated; for CFU/Swab: surviving count per replicate (1-5), contact times in label
Procedure: as §1, with “The” for “The following examples illustrate the efficacy of the method of the present invention. The”
A log measurement value is provided below each of the non-log values. The sterilization was conducted at 50° C.

[3] = system: B. subtilis var. globigii (ATCC 9372); settings: 35° C., 30 seconds; for CFU/Swab: surviving count per replicate (1-5)
Procedure: as §1, with “The” for “The following examples illustrate the efficacy of the method of the present invention. The”
In Table Three, a solution of 0.1 Normal potassium hydroxide (KOH) was utilized with a solution of 3% hydrogen peroxide at a temperature of 35° C. for 30 seconds.

Compound	bactericidal effect (in words) ([2]; 50° C.)	Average [2]	logCFU/Swab ([2]; 50° C.)	CFU/Swab ([2]; 50° C.)	CFU/Swab [3]	also measured
[Na+].[OH-] [1M NaOH Control, sodium hydroxide]						CFU/Swab [1]: 5,700 CFU/Swab and 210 CFU/Swab
[Na+].[OH-] [50° C. 10 s 0.25M NaOH Control, sodium hydroxide]	no bacteriocidal effect	6.75	6.80 logCFU/Swab and 6.90 logCFU/Swab	6,300,000 CFU/Swab and 3,800,000 CFU/Swab and 7,900,000 CFU/Swab and 5,400,000 CFU/Swab		
OO [50° C. 30 s 3.5% H2O2 10 s catalase, hydrogen peroxide]	no effect	6.52	6.20 logCFU/Swab and 6.60 logCFU/Swab and 6.70 logCFU/Swab	1,600,000 CFU/Swab and 4,200,000 CFU/Swab and 4,000,000 CFU/Swab and 3,000,000 CFU/Swab and 5,000,000 CFU/Swab		Log reduction ([2]; versus inoculated untreated control (average 6.66)): 0.14
OO [50° C. 30 s 35% H2O2 10 s catalase, hydrogen peroxide]		2.30	1.60 logCFU/Swab and 1.30 logCFU/Swab	40 CFU/Swab and 570 CFU/Swab and 20 CFU/Swab and 270 CFU/Swab and 2700 CFU/Swab		log inactivation per 10 seconds of treatment ([2]; rate of kill per unit time, 50° C.): 1.45 log per 10 seconds
OO [H2O2 Control, hydrogen peroxide]					5,200,000 CFU/Swab	
catalase [Catalase Control]					2,500,000 CFU/Swab	logCFU/Swab ([3]; log of surviving count per replicate (1-5)): 6.40 logCFU/Swab
